What was measured:
HCT-116 = assay: Antiproliferative activity against human HCT116 cells after 72 hrs by phosphatase assay; assay type: functional, cell-based; conditions: HCT-116, 72 h
[1] = Cytotoxicity against human HCT116/VM46 cells assessed as reduction in cell viability after 72 hrs by phosphatase assay; assay type: cell-based; conditions: HCT-116/VM46, 72 h
L1210 = assay: Antiproliferative activity against mouse L1210 cells after 72 hrs by phosphatase assay; assay type: functional, cell-based; conditions: L1210, 72 h

| IC50 (HCT-116) [nM] | IC50 (L1210) [nM] | Structure (SMILES) | IC50 [1] [nM] |
| --- | --- | --- | --- |
| 60 | 50 | CCCCCCCC(=O)N[C@@]1(CC)C[C@H]2CN(CCc3c([nH]c4ccccc34)[C@@](C(=O)OC)(c3cc4c(cc3OC)N(C)[C@H]3[C@@](O)(C(=O)OC)[C@H](OC(C)=O)[C@]5(CC)C=CCN6CC[C@]43[C@@H]65)C2)C1 | 420 |
| > 10000 | 4200 | CC[C@]1(NC(=O)C2CCNCC2)C[C@H]2CN(CCc3c([nH]c4ccccc34)[C@@](C(=O)OC)(c3cc4c(cc3OC)N(C)[C@H]3[C@@](O)(C(=O)OC)[C@H](OC(C)=O)[C@]5(CC)C=CCN6CC[C@]43[C@@H]65)C2)C1 | > 10000 |
| 55 | 50 | CC[C@]1(NC(=O)c2ccccc2Cl)C[C@H]2CN(CCc3c([nH]c4ccccc34)[C@@](C(=O)OC)(c3cc4c(cc3OC)N(C)[C@H]3[C@@](O)(C(=O)OC)[C@H](OC(C)=O)[C@]5(CC)C=CCN6CC[C@]43[C@@H]65)C2)C1 | 390 |
| 6.5 | 5.2 | CC[C@]1(NC(=O)c2ccc(Oc3ccccc3)cc2)C[C@H]2CN(CCc3c([nH]c4ccccc34)[C@@](C(=O)OC)(c3cc4c(cc3OC)N(C)[C@H]3[C@@](O)(C(=O)OC)[C@H](OC(C)=O)[C@]5(CC)C=CCN6CC[C@]43[C@@H]65)C2)C1 | 50 |
| 0.7 | 0.6 | CC[C@]1(NC(=O)c2ccc(C)c(N)c2)C[C@H]2CN(CCc3c([nH]c4ccccc34)[C@@](C(=O)OC)(c3cc4c(cc3OC)N(C)[C@H]3[C@@](O)(C(=O)OC)[C@H](OC(C)=O)[C@]5(CC)C=CCN6CC[C@]43[C@@H]65)C2)C1 | 25 |
| 3.8 | 5 | CC[C@]1(NC(=O)c2ccc3occc3c2)C[C@H]2CN(CCc3c([nH]c4ccccc34)[C@@](C(=O)OC)(c3cc4c(cc3OC)N(C)[C@H]3[C@@](O)(C(=O)OC)[C@H](OC(C)=O)[C@]5(CC)C=CCN6CC[C@]43[C@@H]65)C2)C1 | 25 |
| 2.8 | 4.8 | CC[C@]1(NC(=O)c2cccc(N3CCOCC3)c2)C[C@H]2CN(CCc3c([nH]c4ccccc34)[C@@](C(=O)OC)(c3cc4c(cc3OC)N(C)[C@H]3[C@@](O)(C(=O)OC)[C@H](OC(C)=O)[C@]5(CC)C=CCN6CC[C@]43[C@@H]65)C2)C1 | 30 |
| 30 | 30 | CC[C@]1(NC(=O)c2cc(C)c(OCc3ccccc3)c(C)c2)C[C@H]2CN(CCc3c([nH]c4ccccc34)[C@@](C(=O)OC)(c3cc4c(cc3OC)N(C)[C@H]3[C@@](O)(C(=O)OC)[C@H](OC(C)=O)[C@]5(CC)C=CCN6CC[C@]43[C@@H]65)C2)C1 | 80 |
| 0.8 | 1.5 | CC[C@]1(NC(=O)c2ccc(NC(=O)OC)cc2)C[C@H]2CN(CCc3c([nH]c4ccccc34)[C@@](C(=O)OC)(c3cc4c(cc3OC)N(C)[C@H]3[C@@](O)(C(=O)OC)[C@H](OC(C)=O)[C@]5(CC)C=CCN6CC[C@]43[C@@H]65)C2)C1 | 55 |
| 1.4 | 2.7 | CC[C@]1(NC(=O)c2ccc(Br)cc2)C[C@H]2CN(CCc3c([nH]c4ccccc34)[C@@](C(=O)OC)(c3cc4c(cc3OC)N(C)[C@H]3[C@@](O)(C(=O)OC)[C@H](OC(C)=O)[C@]5(CC)C=CCN6CC[C@]43[C@@H]65)C2)C1 | 10 |
| 15 | 25 | CCC(C)c1ccc(C(=O)N[C@@]2(CC)C[C@H]3CN(CCc4c([nH]c5ccccc45)[C@@](C(=O)OC)(c4cc5c(cc4OC)N(C)[C@H]4[C@@](O)(C(=O)OC)[C@H](OC(C)=O)[C@]6(CC)C=CCN7CC[C@]54[C@@H]76)C3)C2)cc1 (some centres not stated) | 65 |
| 20 | 30 | CCCCc1ccc(C(=O)N[C@@]2(CC)C[C@H]3CN(CCc4c([nH]c5ccccc45)[C@@](C(=O)OC)(c4cc5c(cc4OC)N(C)[C@H]4[C@@](O)(C(=O)OC)[C@H](OC(C)=O)[C@]6(CC)C=CCN7CC[C@]54[C@@H]76)C3)C2)cc1 | 70 |
| 7.6 | 30 | CC[C@]1(NC(=O)c2ccc(C)c(NC(=O)c3ccccc3)c2)C[C@H]2CN(CCc3c([nH]c4ccccc34)[C@@](C(=O)OC)(c3cc4c(cc3OC)N(C)[C@H]3[C@@](O)(C(=O)OC)[C@H](OC(C)=O)[C@]5(CC)C=CCN6CC[C@]43[C@@H]65)C2)C1 | 240 |
| 0.5 | 0.6 | CC[C@]1(NC(=O)c2ccc3c(c2)OCCO3)C[C@H]2CN(CCc3c([nH]c4ccccc34)[C@@](C(=O)OC)(c3cc4c(cc3OC)N(C)[C@H]3[C@@](O)(C(=O)OC)[C@H](OC(C)=O)[C@]5(CC)C=CCN6CC[C@]43[C@@H]65)C2)C1 | 5.3 |
| 1.3 | 1.3 | CC[C@]1(NC(=O)/C=C/c2ccco2)C[C@H]2CN(CCc3c([nH]c4ccccc34)[C@@](C(=O)OC)(c3cc4c(cc3OC)N(C)[C@H]3[C@@](O)(C(=O)OC)[C@H](OC(C)=O)[C@]5(CC)C=CCN6CC[C@]43[C@@H]65)C2)C1 | 30 |
| 480 | 450 | CC[C@]1(NC(=O)c2ccccc2OC(F)(F)F)C[C@H]2CN(CCc3c([nH]c4ccccc34)[C@@](C(=O)OC)(c3cc4c(cc3OC)N(C)[C@H]3[C@@](O)(C(=O)OC)[C@H](OC(C)=O)[C@]5(CC)C=CCN6CC[C@]43[C@@H]65)C2)C1 | 620 |
| 55 | 55 | CC[C@]1(NC(=O)Cc2ccccc2)C[C@H]2CN(CCc3c([nH]c4ccccc34)[C@@](C(=O)OC)(c3cc4c(cc3OC)N(C)[C@H]3[C@@](O)(C(=O)OC)[C@H](OC(C)=O)[C@]5(CC)C=CCN6CC[C@]43[C@@H]65)C2)C1 | 550 |

| Structure (SMILES) | IC50 (HCT-116) [nM] | IC50 (L1210) [nM] | IC50 [1] [nM] |
| --- | --- | --- | --- |
| CCc1ccc(C(=O)N[C@@]2(CC)C[C@H]3CN(CCc4c([nH]c5ccccc45)[C@@](C(=O)OC)(c4cc5c(cc4OC)N(C)[C@H]4[C@@](O)(C(=O)OC)[C@H](OC(C)=O)[C@]6(CC)C=CCN7CC[C@]54[C@@H]76)C3)C2)cc1 | 0.7 | 0.65 | 3.4 |
| CC[C@]1(NC(=O)C(C)(C)C)C[C@H]2CN(CCc3c([nH]c4ccccc34)[C@@](C(=O)OC)(c3cc4c(cc3OC)N(C)[C@H]3[C@@](O)(C(=O)OC)[C@H](OC(C)=O)[C@]5(CC)C=CCN6CC[C@]43[C@@H]65)C2)C1 | 3600 | 2800 | 4100 |
| CC[C@]1(NC(=O)c2ccc3ccccc3c2)C[C@H]2CN(CCc3c([nH]c4ccccc34)[C@@](C(=O)OC)(c3cc4c(cc3OC)N(C)[C@H]3[C@@](O)(C(=O)OC)[C@H](OC(C)=O)[C@]5(CC)C=CCN6CC[C@]43[C@@H]65)C2)C1 | 2.3 | 1.9 | 6.4 |
| CC[C@]1(NC(=O)c2cccc(C)c2)C[C@H]2CN(CCc3c([nH]c4ccccc34)[C@@](C(=O)OC)(c3cc4c(cc3OC)N(C)[C@H]3[C@@](O)(C(=O)OC)[C@H](OC(C)=O)[C@]5(CC)C=CCN6CC[C@]43[C@@H]65)C2)C1 | 0.7 | 0.5 | 3 |
| CC[C@]1(NC(=O)c2cc(OC)c(OC)c(OC)c2)C[C@H]2CN(CCc3c([nH]c4ccccc34)[C@@](C(=O)OC)(c3cc4c(cc3OC)N(C)[C@H]3[C@@](O)(C(=O)OC)[C@H](OC(C)=O)[C@]5(CC)C=CCN6CC[C@]43[C@@H]65)C2)C1 | 0.1 | 0.09 | 2.4 |
| CC[C@]1(NC(=O)c2ccc3ccsc3c2)C[C@H]2CN(CCc3c([nH]c4ccccc34)[C@@](C(=O)OC)(c3cc4c(cc3OC)N(C)[C@H]3[C@@](O)(C(=O)OC)[C@H](OC(C)=O)[C@]5(CC)C=CCN6CC[C@]43[C@@H]65)C2)C1 | 2.9 | 3.1 | 7.7 |
| CC[C@]1(NC(=O)C2Cc3ccccc3C2)C[C@H]2CN(CCc3c([nH]c4ccccc34)[C@@](C(=O)OC)(c3cc4c(cc3OC)N(C)[C@H]3[C@@](O)(C(=O)OC)[C@H](OC(C)=O)[C@]5(CC)C=CCN6CC[C@]43[C@@H]65)C2)C1 | 15 | 30 | 80 |
| CC[C@]1(NC(=O)c2coc3ccccc23)C[C@H]2CN(CCc3c([nH]c4ccccc34)[C@@](C(=O)OC)(c3cc4c(cc3OC)N(C)[C@H]3[C@@](O)(C(=O)OC)[C@H](OC(C)=O)[C@]5(CC)C=CCN6CC[C@]43[C@@H]65)C2)C1 | 4.6 | 4 | 35 |
| CC[C@]1(NC(=O)C2CC2)C[C@H]2CN(CCc3c([nH]c4ccccc34)[C@@](C(=O)OC)(c3cc4c(cc3OC)N(C)[C@H]3[C@@](O)(C(=O)OC)[C@H](OC(C)=O)[C@]5(CC)C=CCN6CC[C@]43[C@@H]65)C2)C1 | 6.1 | 5.5 | 95 |
| CC[C@]1(NC(=O)c2ccc(C)cc2)C[C@H]2CN(CCc3c([nH]c4ccccc34)[C@@](C(=O)OC)(c3cc4c(cc3OC)N(C)[C@H]3[C@@](O)(C(=O)OC)[C@H](OC(C)=O)[C@]5(CC)C=CCN6CC[C@]43[C@@H]65)C2)C1 | 0.45 | 0.5 | 4.5 |
| CC[C@]1(NC(=O)c2ccc3c(c2)CCCC3)C[C@H]2CN(CCc3c([nH]c4ccc(F)cc34)[C@@](C(=O)OC)(c3cc4c(cc3OC)N(C)[C@H]3[C@@](O)(C(=O)OC)[C@H](OC(C)=O)[C@]5(CC)C=CCN6CC[C@]43[C@@H]65)C2)C1 | 6.2 | 5 | 19 |
| CC[C@]1(NC(=O)c2ccc(NS(C)(=O)=O)cc2)C[C@H]2CN(CCc3c([nH]c4ccccc34)[C@@](C(=O)OC)(c3cc4c(cc3OC)N(C)[C@H]3[C@@](O)(C(=O)OC)[C@H](OC(C)=O)[C@]5(CC)C=CCN6CC[C@]43[C@@H]65)C2)C1 | 0.3 | 0.4 | 50 |

— ChEMBL document CHEMBL4017512 (J Med Chem, 2017)
